Values joined by “and” are separate entries in the source; they are usually repeats but may differ in a detail not shown here. Identical values can stand only once.
Legend:
OAT1 = target: T1, OAT1 (Homo sapiens, UniProt Q4U2R8); experiment: OAT1-mediated 3H-PAH uptake inhibition in transfected HEK293 cells; assay type: cell-based; design: expressed in transfected cells; host or cells: HEK293; conditions: for Fraction Inhibited / Triggers Drug Interaction Cutoff / Cmax,u/IC50 ratio: OAT1; for Fraction Inhibited: Cmax,u/(Cmax,u + IC50) (Eq. 2); for Triggers Drug Interaction Cutoff: Cmax,u/IC50 cutoff 0.1 (FDA); for Triggers Drug Interaction Cutoff / Cmax,u/IC50 ratio: 0.02 (EMA); for Cmax,u/IC50 ratio: cutoff 0.1 (FDA), ritlecitinib 200 mg; for IC50: renal OAT1, PAH 0.5 µM as substrate, 4 min, HEK293, mean ± SD, n = 3
T1 sequence (Q4U2R8 1-563): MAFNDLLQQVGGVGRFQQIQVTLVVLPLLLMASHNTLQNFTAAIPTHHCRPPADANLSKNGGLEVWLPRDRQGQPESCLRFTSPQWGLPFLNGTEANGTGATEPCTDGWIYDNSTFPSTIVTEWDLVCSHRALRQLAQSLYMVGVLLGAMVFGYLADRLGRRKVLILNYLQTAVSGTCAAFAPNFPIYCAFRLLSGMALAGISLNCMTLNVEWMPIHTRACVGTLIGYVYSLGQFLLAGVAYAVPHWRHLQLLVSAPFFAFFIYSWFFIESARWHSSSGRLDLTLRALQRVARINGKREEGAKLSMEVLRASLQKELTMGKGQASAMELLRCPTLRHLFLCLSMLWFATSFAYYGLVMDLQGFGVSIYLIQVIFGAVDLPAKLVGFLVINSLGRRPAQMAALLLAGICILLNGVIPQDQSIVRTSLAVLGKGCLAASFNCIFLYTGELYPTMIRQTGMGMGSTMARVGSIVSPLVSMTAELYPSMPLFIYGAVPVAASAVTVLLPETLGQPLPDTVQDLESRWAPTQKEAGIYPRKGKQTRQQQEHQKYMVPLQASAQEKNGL
Method: (§1) Sources of human embryonic kidney (HEK) 293 cells expressing individual transfected human solute carriers (SLC), test substrates, and cell culture reagents, as well as detailed cell culture methods, incubations, and sample processing, have been described previously. SLC included hepatic OATP1B1, OATP1B3, and renal OAT1 and OAT3. […] Likewise, the uptake of non-labeled rosuvastatin (Biosynth, San Diego, CA) at 0.3—0.5 µM was determined for OATP1B1 and OATP1B3 at 1—3 min, and CP-I (Frontier Specialty Chemicals, Logan, UT) at 0.1 µM was determined for OATP1B1 and OATP1B3 at 10 min [14].
(§2) In all cases, ritlecitinib (0.018 to 1000 µM) and metabolite M2 (0.018 to 300 µM) was tested over a wide range of final concentrations dissolved in dimethyl sulfoxide (the final concentration of dimethyl sulfoxide in the assays was 1% v/v). For each transporter, the IC50 was estimated using a four-parameter logistic equation (Eq. 1) using GraphPad Prism software (GraphPad Software Inc, La Jolla, CA).1 %UptakeActivity=Bottom+(Top-Bottom)/1+10^(LogIC50-inhib*HillSlope)
(§3) At the end of the uptake and inhibition experiment, cellular accumulation of ^3H-PAH and ^3H-E3S was determined using liquid scintillation counting as previously described. Rosuvastatin uptake was determined using a tandem high performance liquid chromatography (LC)-mass spectrometry (MS) assay.
Assumes no substrate-dependent shift in IC50 versus PDA.^1 Each OAT form was singularly transfected in human embryonic kidney 293 cells.

[1] = Inhibitor exposure estimates and PK inputs for static drug interaction risk assessment; conditions: for Cmax,u: maximal free plasma concentration (Cmax × fu) at ritlecitinib 200 mg
OATP1B3 = target: T2, OATP1B3 (Homo sapiens, UniProt Q9NPD5); experiment: OATP1B3-mediated rosuvastatin uptake inhibition in transfected HEK293 cells; assay type: cell-based; conditions: for IC50: hepatic OATP1B3, RSV 0.3–0.5 µM as substrate, 1—3 min, HEK293, mean ± SD, n = 3
T2 construct: expressed in transfected cells; host or cells: HEK293
T2 sequence (Q9NPD5 1-702): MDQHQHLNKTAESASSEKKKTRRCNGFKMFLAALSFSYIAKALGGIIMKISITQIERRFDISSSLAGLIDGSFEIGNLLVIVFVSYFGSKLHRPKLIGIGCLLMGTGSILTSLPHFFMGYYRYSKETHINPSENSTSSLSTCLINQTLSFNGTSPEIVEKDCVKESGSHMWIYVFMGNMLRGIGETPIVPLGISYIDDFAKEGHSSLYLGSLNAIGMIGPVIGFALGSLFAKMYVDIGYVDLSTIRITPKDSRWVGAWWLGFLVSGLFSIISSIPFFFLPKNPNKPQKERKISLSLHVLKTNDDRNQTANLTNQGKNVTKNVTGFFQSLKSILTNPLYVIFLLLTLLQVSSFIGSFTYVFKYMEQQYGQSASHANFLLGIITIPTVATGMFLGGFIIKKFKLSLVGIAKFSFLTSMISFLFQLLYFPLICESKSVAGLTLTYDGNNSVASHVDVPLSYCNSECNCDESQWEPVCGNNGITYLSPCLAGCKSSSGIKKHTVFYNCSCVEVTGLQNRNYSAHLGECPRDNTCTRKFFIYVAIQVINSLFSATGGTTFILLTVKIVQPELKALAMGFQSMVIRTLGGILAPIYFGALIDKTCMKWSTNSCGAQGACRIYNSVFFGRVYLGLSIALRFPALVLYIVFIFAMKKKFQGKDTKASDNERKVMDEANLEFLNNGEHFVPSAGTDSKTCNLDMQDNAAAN
Method: as §1, §2, §3

OATP1B1 = target: T3, OATP1B1 (Homo sapiens, UniProt Q9Y6L6); experiment: OATP1B1-mediated rosuvastatin uptake inhibition in transfected HEK293 cells; assay type: cell-based; conditions: for IC50: hepatic OATP1B1, RSV 0.3–0.5 µM as substrate, 1—3 min, HEK293, mean ± SD, n = 3; for R-value: 1 + (Imax,inlet,u/IC50), cutoff 1.1 (FDA), 1.04 (EMA)
T3 construct: expressed in transfected cells; host or cells: HEK293
T3 sequence (Q9Y6L6 1-691): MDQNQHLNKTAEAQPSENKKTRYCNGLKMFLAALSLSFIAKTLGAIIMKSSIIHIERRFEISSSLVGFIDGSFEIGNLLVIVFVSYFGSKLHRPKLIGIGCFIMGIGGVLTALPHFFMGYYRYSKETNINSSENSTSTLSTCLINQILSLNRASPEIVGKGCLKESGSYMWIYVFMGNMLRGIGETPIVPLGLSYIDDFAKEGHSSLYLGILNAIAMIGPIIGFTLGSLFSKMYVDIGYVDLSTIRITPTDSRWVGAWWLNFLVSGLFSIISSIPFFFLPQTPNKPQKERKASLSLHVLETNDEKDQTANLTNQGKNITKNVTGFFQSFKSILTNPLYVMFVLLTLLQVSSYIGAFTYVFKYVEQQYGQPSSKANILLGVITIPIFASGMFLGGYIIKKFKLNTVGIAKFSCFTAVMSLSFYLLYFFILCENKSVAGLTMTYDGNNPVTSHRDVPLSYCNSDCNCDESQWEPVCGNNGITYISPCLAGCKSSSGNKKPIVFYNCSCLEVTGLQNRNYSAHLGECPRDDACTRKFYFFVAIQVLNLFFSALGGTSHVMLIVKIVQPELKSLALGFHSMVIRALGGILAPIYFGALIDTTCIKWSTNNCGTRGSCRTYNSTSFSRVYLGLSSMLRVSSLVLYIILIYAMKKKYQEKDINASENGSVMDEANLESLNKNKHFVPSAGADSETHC
Method: as §1, §2, §3

C[C@H]1CC[C@@H](Nc2ncnc3[nH]ccc23)CN1C(=O)CCSC[C@H](N)C(=O)O [M2]
% inhibition at the highest concentration tested (OAT1; OAT1 (PAH), highest concentration 300 µM): 40%
Fraction Inhibited (OAT1): < 0.01
Triggers Drug Interaction Cutoff (OAT1): No
Cmax,u/IC50 ratio (OAT1): < 0.01
IC50 (OAT1): > 300 µM
Cmax,u [1]: 1.4 μM and 1.4^j μM
Triggers Drug Interaction Cutoff (OATP1B3; OATP1B3 (RSV)): Yes
Cmax,u/IC50 ratio (OATP1B3; OATP1B3 (RSV), Cmax,u used for metabolite M2): 0.17
Fraction Inhibited (OATP1B3; OATP1B3 (RSV), Cmax,u/(Cmax,u + IC50) for M2 (Eq. 3)): 0.1
IC50 (OATP1B3): 8.4 ± 0.2 µM
Triggers Drug Interaction Cutoff (OATP1B1; OATP1B1 (RSV)): Yes
Cmax,u/IC50 ratio (OATP1B1; OATP1B1 (RSV), Cmax,u used for metabolite M2): 0.70
Fraction Inhibited (OATP1B1; OATP1B1 (RSV), Cmax,u/(Cmax,u + IC50) for M2 (Eq. 3)): 0.4
IC50 (OATP1B1): 2 ± 0.03 µM

C=CC(=O)N1C[C@H](Nc2ncnc3[nH]ccc23)CC[C@@H]1C [Ritlecitinib, ritlecitinib]
Fraction Inhibited (OAT1): 0.03
Fraction Inhibited (OAT1; listed as ritlecitinib): ≤ 0.1
Triggers Drug Interaction Cutoff (OAT1): Yes
Cmax,u/IC50 ratio (OAT1): 0.03
IC50 (OAT1): 156 ± 6 µM
Imax,inlet,u ([1]; estimated maximal free hepatic portal concentration, ritlecitinib 200 mg): 31.7 µM
Cmax,u [1]: 4.7 µM
[I]2 ([1]; oral molar dose of ritlecitinib (200 mg)/250 mL): 2803 µM
Triggers Drug Interaction Cutoff (OATP1B3; OATP1B3 (RSV)): No
R-value (OATP1B3; OATP1B3 (RSV), 1 + (Imax,inlet,u/IC50), cutoff 1.1 (FDA), 1.04 (EMA)): 1.03
Fraction Inhibited (OATP1B3; OATP1B3 (RSV), Imax,inlet,u/(Imax,inlet,u + IC50) (Eq. 1)): 0.03
Fraction Inhibited (OATP1B3; OATP1B3 (RSV), Imax,inlet,u/(Imax,inlet,u + IC50) (Eq. 1), listed as ritlecitinib): ≤ 0.1
IC50 (OATP1B3): 934 ± 59 µM
Triggers Drug Interaction Cutoff (OATP1B1; OATP1B1 (RSV)): Yes
R-value (OATP1B1; OATP1B1 (RSV)): 1.10
R-value (OATP1B1; OATP1B1 (RSV), listed as ritlecitinib): 1.1
Fraction Inhibited (OATP1B1; OATP1B1 (RSV), Imax,inlet,u/(Imax,inlet,u + IC50) (Eq. 1)): 0.09
Fraction Inhibited (OATP1B1; OATP1B1 (RSV), Imax,inlet,u/(Imax,inlet,u + IC50) (Eq. 1), listed as ritlecitinib): ≤ 0.1
IC50 (OATP1B1): 312 ± 19 µM

Source: paper PMC10733197, “Utilization of Rosuvastatin and Endogenous Biomarkers in Evaluating the Impact of Ritlecitinib on BCRP, OATP1B1, and OAT3 Transporter Activity” (Pharmaceutical Research, 2023)
